Consider ten compounds from patent US20070166729A1, “Method and reagent for sequencing” (Hitachi, Ltd., priority 2005, published 2007).

Each structure is given as a SMILES string.

One test relates to thermostable PPDK. The conditions noted are these: cited from earlier work; for Michaelis constants / Specificity: thermostable PPDK; for Michaelis constants: substrate named in brackets; for Specificity: relative value in brackets, AMP = 100.
A further test concerns thermostable luciferase. As to conditions: substrate named in brackets; cited from earlier work.
Another test deals with ATP sulfurylase (Saccharomyces cerevisiae, UniProt P08536). The conditions noted are these: read-out: Michaelis constant of reaction for forming the complexes of APS and the enzyme (Km), has been reported; cited from earlier work.
In test [1] the target is T1, luciferase (Photinus pyralis, UniProt P08659). As to conditions: relative to ATP, cited from earlier work.
The target in test [2] is T1, luciferase. Kind of test: APS as substrate for luminescent reaction catalyzed by luciferase. The conditions noted are these: 5 μM APS, reaction solution 100 μl. It counts as biochemical. How it is done:
Pyrosequencing detects chemiluminescence derived from ATP produced from the reaction of PPi produced in DNA complementary strand synthesis with APS in the presence of ATP sulfurylase. […] For example, APS, though having approximately 1/1000 of reaction efficiency of ATP, reacts as a substrate with luciferase to emit light. To efficiently convert PPi produced in complementary strand synthesis to ATP, approximately 5 μM APS must usually be added to the reaction solution. When the volume of the reaction solution is set to 100 μl, 5 μM APS generates luminescence corresponding to approximately 500 fmol ATP. Thus, DNA sequencing with high precision by pyrosequencing must employ a DNA sample of a picomole level and large amounts of reagents commensurate therewith.
When sequencing is performed with 0.1 pmol DNA sample, which is 1/10 of the DNA sample amount (1 pmol) conventionally used, the amount of background light must be equal to or lower than the amount of chemiluminescence emitted by 0.01 pmol ATP. […] Under the conditions of pyrosequencing, the efficiency of the luminescence process with ATP as a substrate is reduced due to the coexistence of apyrase, an enzyme that degrades dNTP and ATP. […]

Test [3] concerns luciferase luminescence reaction with ATP produced using PPi. Kind of test: Luminescence from DNA complementary strand synthesis at varying AMP concentrations (FIG. 7). As to conditions: luminescence obtained by adding DNA. It counts as biochemical. An excerpt: FIG. 7 is a graph showing the relationship between AMP concentrations and signal intensity variations obtained in luciferase luminescence reaction with ATP produced using PPi obtained in DNA complementary strand synthesis. The horizontal axis of the graph indicates AMP concentrations in the reaction solution;
The luminescence obtained by adding DNA (light emitted by PPi obtained in DNA complementary strand synthesis) is generated only in the presence of AMP. […] AMP concentrations giving sufficient luminescence intensity are within the range of 30 to 600 μM. As is obvious, the use of AMP within this concentration range enables sequencing with 0.1 pmol DNA sample.

T1 sequence (P08659 whole entry, species assumed): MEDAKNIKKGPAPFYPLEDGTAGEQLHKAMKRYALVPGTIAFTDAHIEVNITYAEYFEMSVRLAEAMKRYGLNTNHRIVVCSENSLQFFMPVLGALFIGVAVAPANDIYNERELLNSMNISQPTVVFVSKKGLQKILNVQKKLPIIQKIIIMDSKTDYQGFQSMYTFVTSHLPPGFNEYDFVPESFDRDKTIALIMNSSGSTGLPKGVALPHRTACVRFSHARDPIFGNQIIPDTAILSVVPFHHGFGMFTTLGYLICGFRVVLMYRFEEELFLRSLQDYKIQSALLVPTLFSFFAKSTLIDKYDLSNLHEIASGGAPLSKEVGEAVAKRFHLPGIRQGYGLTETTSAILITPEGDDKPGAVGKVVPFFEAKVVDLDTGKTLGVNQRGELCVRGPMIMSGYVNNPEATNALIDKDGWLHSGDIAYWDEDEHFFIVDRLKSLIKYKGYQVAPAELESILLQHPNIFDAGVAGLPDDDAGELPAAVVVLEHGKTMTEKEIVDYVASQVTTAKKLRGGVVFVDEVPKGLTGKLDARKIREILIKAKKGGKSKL
Chain of ATP sulfurylase (P08536 whole entry, species assumed): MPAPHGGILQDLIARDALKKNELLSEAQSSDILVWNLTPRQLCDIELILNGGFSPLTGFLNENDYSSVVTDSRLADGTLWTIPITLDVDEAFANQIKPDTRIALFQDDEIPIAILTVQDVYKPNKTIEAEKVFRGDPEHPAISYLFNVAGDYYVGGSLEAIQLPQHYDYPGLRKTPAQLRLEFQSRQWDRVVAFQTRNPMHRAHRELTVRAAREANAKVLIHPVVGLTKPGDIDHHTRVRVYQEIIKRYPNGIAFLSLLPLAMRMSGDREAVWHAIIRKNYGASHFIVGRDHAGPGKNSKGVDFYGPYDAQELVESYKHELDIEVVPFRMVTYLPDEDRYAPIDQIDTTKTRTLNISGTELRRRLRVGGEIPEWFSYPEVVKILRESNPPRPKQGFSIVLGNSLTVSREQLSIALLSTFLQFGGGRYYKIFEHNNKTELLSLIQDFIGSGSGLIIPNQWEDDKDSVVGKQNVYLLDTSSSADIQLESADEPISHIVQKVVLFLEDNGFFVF

Turning to `O=P(O)(O)OP(=O)(O)O` [PPi, pyrophosphate], the Michaelis constants in the test on thermostable PPDK is 381 µM. In the case of `C=C(OP(=O)(O)O)C(=O)O` [phosphoenolpyruvate], in the test with thermostable PPDK, the Michaelis constants was 281 µM. For `O=c1ccn([C@@H]2O[C@H](COP(=O)(O)O)[C@@H](O)[C@H]2O)c(=O)[nH]1` [UMP], in the test on thermostable PPDK, the Specificity is 0.

With `Nc1ccn([C@@H]2O[C@H](COP(=O)(O)O)[C@@H](O)[C@H]2O)c(=O)n1` [CMP], the Specificity entry with thermostable PPDK is “CMP (0), GMP (0)”. For the compound `Cc1cn([C@H]2C[C@H](O)[C@@H](COP(=O)(O)O)O2)c(=O)[nH]c1=O` [TMP], the Specificity in the test on thermostable PPDK is 0. As to `Nc1ncnc2c1ncn2[C@@H]1O[C@H](COP(=O)(O)OP(=O)(O)OP(=O)(O)O)[C@@H](O)[C@H]1O` [ATP], the Michaelis constants with thermostable PPDK is 201 µM. As to `O=C(O)[C@H]1CSC(c2nc3ccc(O)cc3s2)=N1` [D-luciferin], the Michaelis constants in the test with thermostable luciferase is given as 1.5104 M (D-luciferin). For `Nc1nc2c(ncn2[C@@H]2O[C@H](COP(=O)(O)O)[C@@H](O)[C@H]2O)c(=O)[nH]1` [GMP], the Specificity result in the test on thermostable PPDK is “CMP (0), GMP (0)”. As usually defined, the Km is the substrate concentration at which the rate is half of its maximum. As to `Nc1ncnc2c1ncn2[C@@H]1O[C@H](COP(=O)(O)OS(=O)(=O)O)[C@@H](O)[C@H]1O` [APS, adenosine 5′-phosphosulfate], the Km on ATP sulfurylase is 0.56 µM. Also, on luciferase [1], the “reaction efficiency of ATP (fraction) as luciferase substrate” value was “approximately 1/1000”. The “activity to ATP as substrate for luminescent reaction catalyzed by luciferase” value on luciferase [1] (has been reported) is 0.6×10^−3. Besides, at luciferase [2], the “luminescence corresponding to ATP” value is listed as “approximately 500 fmol”.

Consider `Nc1ncnc2c1ncn2[C@@H]1O[C@H](COP(=O)(O)O)[C@@H](O)[C@H]1O` [AMP], for which, in the test with thermostable PPDK (have been reported, read-out: Michaelis constants (Km) of PPDK and AMP), the Km is 5 µM. Further, in the test with thermostable PPDK, the Specificity is on record as 100 and the Michaelis constants is 501 µM. Besides, in test [3], the “AMP concentration at luminescence peak” value was “around 100 μM”.
